Like-named read-outs stand apart in the source and are kept apart here.
Assays:
[1] = biological target: T1, Bombyx mori EcR (VP16 fusion, CVBE switch construct) (Bombyx mori, UniProt P49881); test: Z3 Assay (HEK-293 cells with CVBE and 6XEcRE LacZ, β-galactosidase reporter); conditions: for Fold Induction, Z3 Assay, 3.3 uM: 3.3 uM ligand; for Fold Induction, Z3 Assay, 3.3 uM / Fold Induction, Z3 Assay, 33 uM: ligand treated / DMSO treated cells; for Fold Induction, Z3 Assay, 33 uM: 33 uM ligand; for Z3 assay Rel Max FI: maximum fold induction at any concentration relative to that of GS-E ligand; for fold induction at 33 µM: HEK293, read-out: Fold Induction, Z3 Assay, 33 uM
T1 sequence (P49881 86-606): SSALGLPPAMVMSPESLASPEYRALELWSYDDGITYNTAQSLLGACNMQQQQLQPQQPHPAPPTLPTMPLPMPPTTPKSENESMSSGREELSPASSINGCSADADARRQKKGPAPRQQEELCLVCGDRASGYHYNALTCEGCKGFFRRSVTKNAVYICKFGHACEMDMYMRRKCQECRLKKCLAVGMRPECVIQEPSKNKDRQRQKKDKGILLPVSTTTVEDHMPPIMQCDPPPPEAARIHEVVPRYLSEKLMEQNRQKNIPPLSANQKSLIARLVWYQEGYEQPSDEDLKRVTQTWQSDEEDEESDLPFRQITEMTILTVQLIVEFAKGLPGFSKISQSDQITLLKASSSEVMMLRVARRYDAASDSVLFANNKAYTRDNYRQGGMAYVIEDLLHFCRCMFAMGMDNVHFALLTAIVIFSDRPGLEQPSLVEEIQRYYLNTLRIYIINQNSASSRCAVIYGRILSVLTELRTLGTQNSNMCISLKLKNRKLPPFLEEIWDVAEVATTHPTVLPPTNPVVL
T1 sequence (P19793 1-462 partner): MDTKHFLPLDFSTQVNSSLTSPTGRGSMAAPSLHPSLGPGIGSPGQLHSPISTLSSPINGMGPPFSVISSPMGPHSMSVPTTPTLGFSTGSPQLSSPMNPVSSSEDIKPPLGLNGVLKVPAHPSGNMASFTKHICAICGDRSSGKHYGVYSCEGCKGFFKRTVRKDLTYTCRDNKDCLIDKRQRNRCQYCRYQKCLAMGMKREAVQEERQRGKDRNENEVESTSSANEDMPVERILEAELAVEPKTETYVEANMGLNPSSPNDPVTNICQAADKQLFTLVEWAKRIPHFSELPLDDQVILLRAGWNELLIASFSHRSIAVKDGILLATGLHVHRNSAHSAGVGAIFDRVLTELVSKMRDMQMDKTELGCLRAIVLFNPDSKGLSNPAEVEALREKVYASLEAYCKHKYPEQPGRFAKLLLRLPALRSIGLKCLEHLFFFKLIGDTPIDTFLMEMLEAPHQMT

[2] = biological target: GAL4 DBD-CfEcR(DEF)/VP16AD-MmRXRE (Choristoneura fumiferana, UniProt O77240); test: 13B3 Assay (CHO stable cell line, luciferase reporter); conditions: for Fold Induction, 13B3 Assay, 3.3 uM: 3.3 uM ligand; for Fold Induction, 13B3 Assay, 3.3 uM / Fold Induction, 13B3 Assay, 33 uM: RLU ligand treated / RLU DMSO treated cells; for Fold Induction, 13B3 Assay, 33 uM: 33 uM ligand; for 13B3 assay Rel Max FI: maximum fold induction at any concentration relative to that of GS-E ligand, CHO 13B3 cells; for fold induction at 33 µM: read-out: Fold Induction, 13B3 Assay, 33 uM
Excerpt: GAL4 DBD-CfEcR(DEF)/VP16AD-MmRXRE:
The wild-type D, E, and F domains from spruce budworm Choristoneura fumiferana EcR (“CfEcR-DEF”; SEQ ID NO: 1) were fused to a GALA DNA binding domain (“Gal4DBD1-147”; SEQ ID NO: 2) and placed under the control of the SV40e promoter of pM vector (PT3119-5, Clontech, Palo Alto, Calif.). The D and E domains from Mus Musculus RXR (“MmRXR-DE”; SEQ ID NO: 11) were fused to the transactivation domain from VP16 (“VP16AD”; SEQ ID NO: 6) and placed under the control of the SV40e promoter of the pVP16 vector (PT3127-5, Clontech, Palo Alto, Calif.).
CHO cells were transiently transfected with transcription cassettes for GAL4 DBD-CJEcR(DEF) and for VP16AD-MmRXRE controlled by SV40e promoters. Stably transfected cells were selected using Hygromycin. Individually isolated CHO cell clones were transiently transfected with a GALA RE-luciferase reporter (pFR-Luc, Stratagene, La Jolla, Calif.). The 13B3 clone was selected using Zeocin.
Cells were trypsinized and diluted to a concentration of 2.5×10^4 cells mL. 100 μL of cell suspension was placed in each well of a 96 well plate and incubated at 37° C. under 5% CO2 for 24 h. Ligand stock solutions were prepared in DMSO and diluted 300 fold for all treatments. Dose response testing consisted of 8 concentrations ranging from 33 μM to 0.01 μM.
Luciferase reporter gene expression was measured 48 h after cell treatment using Bright-Glo™ Luciferase Assay System from Promega (E2650). Luminescence was detected at room temperature using a Dynex MLX microtiter plate luminometer.
Each assay was conducted in two separate wells, and the two values were averaged. Fold inductions were calculated by dividing relative light units (“RLU”) in ligand treated cells with RLU in DMSO treated cells. EC50s were calculated from dose response data using a three-parameter logistic model.

[3] = read-out: Z3 assay EC50, HEK-293 Z3 cells, β-galactosidase reporter, average of two wells
[4] = read-out: 13B3 EC50, CHO 13B3 stable cell line, luciferase reporter, 48 h, average of two wells

For `CC(C)(C)N(NC(=O)c1ccc(Br)cc1)C(=O)c1cc(Cl)cc(Cl)c1` [RG-101759], the “Fold Induction, Z3 Assay, 3.3 uM” value ([1]; average of two wells) was 796, the “Fold Induction, Z3 Assay, 33 uM” value ([1]; average of two wells) was 158 and the “Z3 assay Rel Max FI” value ([1]; HEK-293 Z3 cells) was 0.639. For the same compound, the EC50 [1, 3] was 331 nM, the “Fold Induction, 13B3 Assay, 3.3 uM” value ([2]; average of two wells) was 623 and the “Fold Induction, 13B3 Assay, 33 uM” value ([2]; average of two wells) was 137. The “13B3 assay Rel Max FI” value [2] was 0.336 and the EC50 [2, 4] was 877 nM.
For `CCc1ccc(C(=O)NN(C(=O)c2cc(C)c(Cl)c(C)c2)C(C)(C)C)cc1` [RG-101862], the “Fold Induction, Z3 Assay, 3.3 uM” value ([1]; average of two wells) was 717, the “Fold Induction, Z3 Assay, 33 uM” value ([1]; average of two wells) was 250 and the “Z3 assay Rel Max FI” value ([1]; HEK-293 Z3 cells) was 0.866. For the same compound, the EC50 [1, 3] was 269 nM, the “Fold Induction, 13B3 Assay, 3.3 uM” value ([2]; average of two wells) was 3279 and the “Fold Induction, 13B3 Assay, 33 uM” value ([2]; average of two wells) was 293. For the same compound, the “13B3 assay Rel Max FI” value [2] was 0.861 and the EC50 [2, 4] was 1050 nM.
With `CCc1ccc(C(=O)NN(C(=O)c2cc(C)cc(C)c2)C(C)(C)C)cc1CC` [RG-101889] the “Fold Induction, Z3 Assay, 3.3 uM” value ([1]; average of two wells) was 1085, the “Fold Induction, Z3 Assay, 33 uM” value ([1]; average of two wells) was 245 and the EC50 [1, 3] was 3300 nM. For the same compound, the “Fold Induction, 13B3 Assay, 33 uM” value ([2]; average of two wells) was 378.
In the case of `Cc1cc(C)cc(C(=O)N(NC(=O)c2ccc3c(c2C)CCCO3)C(C)(C)C)c1` [RG-102408], the “Fold Induction, Z3 Assay, 3.3 uM” value ([1]; average of two wells) is reported as 249, the “Z3 assay Rel Max FI” value ([1]; HEK-293 Z3 cells) is reported as 1.114 and the EC50 [1, 3] is reported as 54 nM. For the same compound, the “Fold Induction, 13B3 Assay, 3.3 uM” value ([2]; average of two wells) was 25, the “13B3 assay Rel Max FI” value [2] was 0.662 and the EC50 [2, 4] was 91 nM.
`CCC(N(NC(=O)c1cccc(C)c1C)C(=O)c1cccc(C)c1)C(C)(C)C` (stereo not shown) [RG-104074] was tested, and the “Fold Induction, Z3 Assay, 3.3 uM” value ([1]; average of two wells) was 189, the “Fold Induction, Z3 Assay, 33 uM” value ([1]; average of two wells) was 200 and the “Z3 assay Rel Max FI” value ([1]; HEK-293 Z3 cells) was 1.122. For the same compound, the EC50 [1, 3] was 307 nM, the “Fold Induction, 13B3 Assay, 3.3 uM” value ([2]; average of two wells) was 544 and the “Fold Induction, 13B3 Assay, 33 uM” value ([2]; average of two wells) was 5378. For the same compound, the “13B3 assay Rel Max FI” value [2] was 0.812 and the EC50 [2, 4] was 865 nM.
With `C=CCOCc1c(OC)cccc1C(=O)NN(C(=O)c1cc(C)cc(C)c1)C(C)(C)C` [RG-115003, 3,5-dimethyl-benzoic acid N′-(2-allyloxymethyl-3-methoxy-benzoyl)-N-tert-butyl-hydrazide] the fold induction at 33 µM [1] was 1280 and the fold induction at 33 µM [2] was 301.
`CCc1c(OC)cccc1C(=O)NN(C(=O)c1cc(C)cc(C)c1)C(C)(C)COC` [RG-115006, 2-ethyl-3-methoxy-benzoic acid N′-(3,5-dimethyl-benzoyl)-N′-(2-methoxy-1,1-dimethyl-ethyl)-hydrazide] was tested, and the EC50 [1] was 275 nM, the fold induction at 3.3 µM ([1]; HEK293, read-out: Fold Induction, Z3 Assay, 3.3 uM) was 415 and the fold induction at 33 µM [1] was 1070. The “Z3 assay Rel Max FI” value ([1]; HEK-293 Z3 cells) was 1.031, the EC50 [2] was 3500 nM and the “13B3 assay Rel Max FI” value [2] was 0.890. For the same compound, the fold induction at 3.3 µM ([2]; read-out: Fold Induction, 13B3 Assay, 3.3 uM) was 4180 and the fold induction at 33 µM [2] was 3150.
`CCc1c(OC)cccc1C(=O)NN(C(=O)c1cccc(Br)c1)C(C)(C)C` [RG-115038] was tested, and the “Fold Induction, Z3 Assay, 3.3 uM” value ([1]; average of two wells) was 600, the “Fold Induction, Z3 Assay, 33 uM” value ([1]; average of two wells) was 321 and the “Z3 assay Rel Max FI” value ([1]; HEK-293 Z3 cells) was 1.064. For the same compound, the EC50 [1, 3] was 550 nM, the “Fold Induction, 13B3 Assay, 3.3 uM” value ([2]; average of two wells) was 4119 and the “Fold Induction, 13B3 Assay, 33 uM” value ([2]; average of two wells) was 4970. The “13B3 assay Rel Max FI” value [2] was 1.172 and the EC50 [2, 4] was 1740 nM.
`CCc1c(OC)cccc1C(=O)NN(C(=O)c1cc(C)cc(C)c1)C(C)(C)C#N` [RG-115043] was tested, and the “Fold Induction, Z3 Assay, 3.3 uM” value ([1]; average of two wells) was 466, the “Fold Induction, Z3 Assay, 33 uM” value ([1]; average of two wells) was 1588 and the “Z3 assay Rel Max FI” value ([1]; HEK-293 Z3 cells) was 0.943. The EC50 [1, 3] was 178 nM, the “Fold Induction, 13B3 Assay, 3.3 uM” value ([2]; average of two wells) was 835 and the “Fold Induction, 13B3 Assay, 33 uM” value ([2]; average of two wells) was 547. For the same compound, the “13B3 assay Rel Max FI” value [2] was 0.852 and the EC50 [2, 4] was 2670 nM.
For `CCc1ccc(C(=O)NN(C(=O)c2ccc(OC)nc2OC)C(C)(C)C)c(F)c1` [RG-115050], the “Fold Induction, Z3 Assay, 3.3 uM” value ([1]; average of two wells) was 424, the “Fold Induction, Z3 Assay, 33 uM” value ([1]; average of two wells) was 1446 and the “Z3 assay Rel Max FI” value ([1]; HEK-293 Z3 cells) was 0.808. The EC50 [1, 3] was 282 nM, the “Fold Induction, 13B3 Assay, 3.3 uM” value ([2]; average of two wells) was 2027 and the “Fold Induction, 13B3 Assay, 33 uM” value ([2]; average of two wells) was 894. For the same compound, the “13B3 assay Rel Max FI” value [2] was 0.724 and the EC50 [2, 4] was 762 nM.
`Cc1c(C(=O)NN(C(=O)c2ccccc2[S+](C)[O-])C(C)(C)C)ccc2c1OCCO2` (stereo not shown) [RG-115064] was tested, and the “Fold Induction, Z3 Assay, 3.3 uM” value ([1]; average of two wells) was 1, the “Fold Induction, Z3 Assay, 33 uM” value ([1]; average of two wells) was 3 and the “Z3 assay Rel Max FI” value ([1]; HEK-293 Z3 cells) was 0.031. For the same compound, the EC50 [1, 3] was greater than 50000 nM, the “Fold Induction, 13B3 Assay, 3.3 uM” value ([2]; average of two wells) was 2 and the “Fold Induction, 13B3 Assay, 33 uM” value ([2]; average of two wells) was 415. The “13B3 assay Rel Max FI” value [2] was 0.000 and the EC50 [2, 4] was greater than 50000 nM.

Reference: patent US9102648B1, “Bioavailable diacylhydrazine ligands for modulating the expression of exogenous genes via an ecdysone receptor complex” (Intrexon Corporation, priority 2003, dated 2015)
